In publication PMC6931124, “NPY1R-targeted peptide-mediated delivery of a dual PPARα/γ agonist to adipocytes enhances adipogenesis and prevents diabetes progression” (Molecular Metabolism, 2019):

How the values were obtained:
[1] = test system: PPARγ; test: PPAR reporter gene assay (luciferase); assay type: cell-based
Procedure: HEK293 cells stably expressing NPY1R C-terminally fused to eYFP were seeded into white 96-well plates, grown to 70–80% confluence, and transfected using Lipofectamine 2000 transfection reagent according to the manufacturer's protocol. For luciferase reporter gene assays, 250 ng reporter plasmid, positive control plasmid or negative control plasmid (Cignal PPAR Reporter (luc) Kit), 250 ng PPARγ expression vector, and 250 ng RXRα expression vector were applied in addition to 0.75 μl of Lipofectamine 2000 transfection reagent per well. For selectivity assays, HEK293 cells without stable NPY1R-eYFP transfection and HEK293 NPY1R-eYFP cells without PPARγ transfection were used. After 24 h of transfection, the cells were treated with tesa or peptides for an additional 24 h. […] Luciferase assays were performed using the Dual-Luciferase System Kit according to the manufacturer's instructions. The relative firefly luciferase activity was normalized by the corresponding Renilla luciferase activity, the luciferase activity of the cells transfected with the negative control plasmid, and the DMSO vehicle control. The assays were performed in at least three independent experiments.
Furthermore, plasmids coding for PPARγ and RXRα were transfected. Because PPARγ binds as a heterodimer with RXRα to PPRE-responsive elements, RXRα is needed for PPARγ activity.
Figure 5 Transcriptional activity of the PPAR reporter gene. […] The depicted values represent mean ± SEM from n ≥ 3 independent experiments. All measurements were normalized to the transcriptional activity of DMSO-treated cells expressing all factors (set to […]). Statistical significance was determined by one-way analysis of variance (ANOVA) followed by Dunnett's multiple comparison test, *≤0.05, **p ≤ 0.01, ***p ≤ 0.001.

[2] = test system: SGBS cells; test: qRT-PCR of adipocyte-marker genes, SGBS; assay type: cell-based, human; conditions: qPCR, vs DMSO; n ≥ 3
Procedure: The 3T3-L1 or SGBS cells were seeded into 6-well plates and differentiated as previously described. Tesa or peptides were added to the differentiation medium at a concentration of 100 μM on day 2, followed by 12 h or 24 h incubation. On day 4, the cells were washed two times with PBS, harvested by trypsinization, and stored at −70 °C until RNA isolation was performed. […] N ≥ 3 independent experiments with two replicates were performed. For the cell culture experiments, the data were analyzed according to the 2^−ΔΔCt method using 36B4 or GAPDH as housekeeping genes and DMSO treatment as a control. Liver mRNA expression was calculated relative to 18sRNA, which was used as an internal control due to its resistance to glucose-dependent regulation. The mRNA levels were quantified using the standard curve method of QuantStudio 6 Flex software (Applied Biosystems, Foster City, CA, USA), determining the crossing points of the individual samples using an algorithm that identifies the first turning point of the fluorescence curve. Amplification of the specific transcripts was confirmed by the melting curve profiles (cooling the sample to 68 °C and heating slowly to 95 °C while measuring the fluorescence) at the end of each PCR [53].
(A, B) Cells were differentiated and stimulated according to the protocol depicted for 3T3-L1 (A) and for SGBS (B). […] Bars represent mean ± SEM from n = 3 independent experiments performed in quadruplicates. Measurements were normalized using DMSO (vehicle)-treated cells (set to 100%). Statistical significances refer to vehicle-treated cells. (E,F) Expression of adipocyte-enriched genes in 3T3-L1 (E) or SGBS (F) adipocytes analyzed by qPCR. Values represent mean ± SEM from n ≥ 3 independent experiments performed in duplicates. […] Statistical significances refer to DMSO-treated cells and were determined by one-way analysis of variance (ANOVA) followed by Dunnett's multiple comparison test, *≤0.05, **p ≤ 0.01, ***p ≤ 0.001.

[3] = test system: subcutaneous and epigonadal adipose tissue; test: Adipose tissue histology and adipocyte size; assay type: in vivo; conditions: db/db mice, 2.5 μmol/kg/day, 8 days; H&E, epigonadal and subcutaneous AT
Procedure: (§1) All of the experiments were performed according to the animal ethical laws of the state Saxony, Germany, and were approved by the local animal ethics review board (Landesdirektion Sachsen, Leipzig, Germany). Female db/db mice 12–15 weeks of age were purchased from Taconic (Denmark) and housed in groups of 5 in temperature- and humidity-controlled facilities in a 12 h:12 h light–dark cycle and had free access to tap water and food (regular chow, Sniff, Soest, Germany). Three out of seven groups served as controls (N = 15, see Table 1). The 5 db/db mice were untreated and 10 db/db mice were vehicle treated either orally or intraperitoneally (i.p.). One additional group (n = 5) of lean C57BL/6NTac mice was used as a metabolically healthy control group. Groups 1 to 5 were treated daily with 2.5 μmol/kg body weight tesa, peptides or vehicle (1% (v/v) DMSO in PBS) either by gavage or intraperitoneal injection for 8 days according to Table 1. The control mice were gavaged with an equal volume of vehicle.

[4] = Rectal body temperature; assay type: in vivo; conditions: db/db mice, 2.5 μM/kg/day, 8 days
Procedure: as §1, with “One additional group (n = 5) of lean C57BL/6NTac mice was used as a metabolically healthy control group. Groups 1 to 5 were treated daily with 2.5 μmol/kg body weight tesa, peptides or vehicle (1% (v/v) DMSO in PBS) either by gavage or intraperitoneal injection for 8 days according to Table 1. The control mice were gavaged with an equal volume of vehicle.” left out
All of the mice were monitored for 9 days during the treatment period. Body weight, food intake, and water uptake were recorded daily and body composition (lean body mass and whole body fat mass) was recorded at the beginning, middle, and end of the study in the conscious mice using an EchoMRI system (Echo Medical Systems, Houston, TX, USA). At the beginning and end of the treatment period, the HbA1c levels were determined from 5 μl of whole venous blood samples using an automated chemical analyzer at the Institute of Laboratory Medicine and Clinical Chemistry and beta-ketone using an automated glucose monitor (FreeStyle Precision H, Abbott GmbH, Ludwigshafen, Germany). […]

[5] = test system: ob/ob mice; conditions: free systemically administered tesa; ref [43]; cited from earlier work
[6] = test system: obese Zucker rats; conditions: free systemically administered tesa; ref [43]; cited from earlier work
[7] = cited from earlier work
Excerpt: The dual PPARα/γ agonist tesaglitazar (tesa), in contrast, contains a carboxyl function suitable for synthesis. […] The clinical investigation of tesa was discontinued in phase III because of safety concerns regarding ...

For `CCO[C@@H](Cc1ccc(OCCc2ccc(OS(C)(=O)=O)cc2)cc1)C(=O)O` [tesa, tesaglitazar], the “transcriptional activity in absence of PPARγ” value ([1]; 100 μM, HEK293 NPY1R without PPARγ transfection) was “complete loss of transcriptional activity”, the “transcriptional activity in absence of NPY1R” value ([1]; 100 μM, HEK293 without NPY1R, with PPARγ) was “not influenced by NPY1R expression” and the “concentration-response curve / potency in reporter assay” value ([1]; HEK293 NPY1R, PPARγ, RXRα, 24 h) was “demonstrated a saturation curve”. For the same compound, the “relative transcriptional activity (luciferase)” value ([1]; HEK293 stably expressing NPY1R, transfected with PPAR reporter, PPARγ, RXRα, 24 h treatment, n ≥ 3) was “Concentration-dependent luciferase activity was detected”, the “Cidec expression, SGBS” value [2] was “enhanced the expression of adiponectin, Fabp4, and Cidec” and the “Fabp4 expression, SGBS” value [2] was “only Fabp4 induction by tesa reached significant differences”. For the same compound, the “adiponectin expression, SGBS” value [2] was “enhanced the expression of adiponectin, Fabp4, and Cidec”, the adipocyte size [3] was “trend toward smaller adipocyte size” and the “body temperature, in words” value [4] was “normalized”. For the same compound, the “anti-diabetic effect in ob/ob mice” value [5] was “reduce hypertriglyceridemia, hyperinsulinemia, and hyperglycemia in ob/ob mice”, the “insulin sensitivity in obese Zucker rats” value [6] was “restore insulin sensitivity in obese Zucker rats” and the insulin resistance ([7]; mice and humans, ref [41, 42, 43]) was “reduce insulin resistance in mice and humans”. For the same compound, the clinical safety ([7]; phase III, ref [16, 44]) was “discontinued in phase III because of safety concerns regarding renal dysfunction”.
